# Test results as given in patent US11129861B2, “Methods for treating inflammatory diseases” (OKCHUNDANG CO., LTD., priority 2017, dated 2021).
# Marks after values point to notes of the source that are not given here.
# Columns and labels:
# NH4OH exposured mice [1] = assay: Antitussive assay: trachea and lung histopathology; type: in vivo; conditions: 50 mg/kg orally, 11 days
# Procedure: SKOG were suspended in distilled water as 40, 20 and 10 mg/ml concentration, and orally administered in a volume of 10 ml/kg (as equivalence to 400, 200 and 100 mg/kg), once a day for 11 days before NH4OH exposure. In addition, AR and KOG were also suspended in distilled water as 40 mg/ml concentration, and orally administered in a volume of 10 ml/kg (as equivalence to 400, 200 and 100 mg/kg), once a day for 11 days before NH4OH exposure. TB was also dissolved in distilled water as 5 mg/ml concentrations, and also orally administered in a volume of 10 ml/kg (as equivalence to 50 mg/kg), once a day for 11 days before NH4OH exposure. In intact vehicle and NH4OH control mice, distilled water 10 ml/kg was orally administered, instead of AR, KOG, SKOG or TB to provide same restrain stresses, in the present experiment. After video image acquirement, some parts of individual lung (left lateral lobes) and trachea (3 mm from thyroid cartilages) were sampled and fixed in 10% neutral buffered formalin (NBF), and crossly trimmed. Then embedded in paraffin, sectioned (3˜4 μm) and stained with Hematoxylin and eosin (H&E) for general histopathology or toluidine blue for mast cells, and after that the histopathological profiles of each sample were observed under light microscope (Model Eclipse 80i, Nikon, Tokyo, Japan). […] The histopathologist was blinds to group distribution when this analysis was made, and at least five repeated measurements in same histological specimens prepared were considered to calculate each mean histomorphometrical value, whenever possible, in this histopathological evaluation (FIG. 4).
# [2] = Body weight measurements, antitussive assay; type: in vivo, mice; conditions: 50 mg/kg orally
# Procedure: One-hundred thirty two 6-week male SPF/VAF CrljOri:CD1 [ICR] mice (OrientBio, Seungnam, Korea; body weight ranged in 29-32 g upon receipt) were prepared, and eight groups of 10 mice each were selected based on the body weights at 7 days after acclimatization based on the body weights (intact control: 34.30±1.74 g, ranged in 31.8-37.0 g; NH4OH treated mice: 34.17±1.32 g, ranged in 31.0-37.3 g), as follows.
# SKOG were suspended in distilled water as 40, 20 and 10 mg/ml concentration, and orally administered in a volume of 10 ml/kg (as equivalence to 400, 200 and 100 mg/kg), once a day for 11 days before NH4OH exposure. In addition, AR and KOG were also suspended in distilled water as 40 mg/ml concentration, and orally administered in a volume of 10 ml/kg (as equivalence to 400, 200 and 100 mg/kg), once a day for 11 days before NH4OH exposure. TB was also dissolved in distilled water as 5 mg/ml concentrations, and also orally administered in a volume of 10 ml/kg (as equivalence to 50 mg/kg), once a day for 11 days before NH4OH exposure. In intact vehicle and NH4OH control mice, distilled water 10 ml/kg was orally administered, instead of AR, KOG, SKOG or TB to provide same restrain stresses, in the present experiment.
# Changes of body weight were measured at once a day from 1 day before initial to end of last 11th oral administration of AR, KOG, SKOG or TB using an automatic laboratory animal weighing electronic balance (Precisa Instrument, Dietikon, Switzland). Animals were overnight fasted (about 18 hours, water was not restricted) before initial test substance administration and sacrifice to reduced individual differences from feeding, and also to reduce the individual body weight differences at start of experiment, the body weight gains during 11 days of oral administration of AR, KOG, SKOG or TB were calculated as follow Equation [1], in the current experiment. Body weight gains during 11 days of oral administration of test substances[B−A]=Body weights at last administration[B]−Body weights at first administration[A] Equation [1]
# [3] = tested on: xylene topically applied mice; assay: Anti-inflammatory assay: ear histopathology; type: in vivo; conditions: 50 mg/kg orally, 11 days; xylene topically applied mice
# Procedure: AR, KOG and SKOG were orally administered as same as antitussive and expectorant assays, once a day for 11 days before xylene topical applications. In addition, DEXA-water soluble granules were dissolved indistilled water as 1.5 mg/ml concentrations (0.1 mg/ml based on DEXA itself), and also orally administered in a volume of 10 ml/kg (as equivalence to 1 mg/kg based on DEXA itself), once a day for 11 days before xylene topical applications. In intact vehicle and xylene control mice, distilled water 10 ml/kg was orally administered, instead of AR, KOG, SKOG or DEXA to provide same restrain stresses, in the present experiment.
# Acute inflammations were induced by single topical application of 0.03 ml of xylene (Duksan Pure Chemical Co. Ltd., Ansan, Korea) to the anterior surface of the right ear at 1 hour after last 11th test substance administration, as described previously with some modifications. Equal volume of saline was topically applied in intact vehicle mouse ears, instead of xylene, in our experiment.
# After ear weight measurement, individual ear samples were fixed in 10% NBF, and crossly trimmed. Then embedded in paraffin, sectioned (3˜4 μm) and stained with Hematoxylin and eosin (H&E) for general histopathology or toluidine blue for mast cells, and after that the histopathological profiles of each sample were observed under light microscope. To more detail changes, mean total, epidermis and dermis thicknesses of the ear anterior surface, numbers of infiltrated inflammatory cells and mast cells on the dermis of ear (cells/mm^2), collagen occupied region percentages on the dermis (%/mm2) were analyzed using a computer assisted image analysis program, according to previously established methods, respectively. The histopathologist was blinds to group distribution when this analysis was made, and at least five repeated measurements in same histological specimens prepared were considered to calculate each mean histomorphometrical value, whenever possible, in this histopathological evaluation.
# NH4OH exposured mice [4] = assay: Antitussive assay: NH4OH-induced coughing responses; type: in vivo; conditions: 50 mg/kg orally, 11 days; compared with NH4OH control mice
# Procedure: NH4OH treated mice: 34.17±1.32 g, ranged in 31.0-37.3 g), as follows. SKOG were suspended in distilled water as 40, 20 and 10 mg/ml concentration, and orally administered in a volume of 10 ml/kg (as equivalence to 400, 200 and 100 mg/kg), once a day for 11 days before NH4OH exposure. In addition, AR and KOG were also suspended in distilled water as 40 mg/ml concentration, and orally administered in a volume of 10 ml/kg (as equivalence to 400, 200 and 100 mg/kg), once a day for 11 days before NH4OH exposure. TB was also dissolved in distilled water as 5 mg/ml concentrations, and also orally administered in a volume of 10 ml/kg (as equivalence to 50 mg/kg), once a day for 11 days before NH4OH exposure. In intact vehicle and NH4OH control mice, distilled water 10 ml/kg was orally administered, instead of AR, KOG, SKOG or TB to provide same restrain stresses, in the present experiment. Coughing was induced by single inhalation of 25% NH4OH (Sigma-Aldrich, St. […] Individual intact vehicle control mouse was exposured to 0.3 ml of saline contained 1,000 ml glass Erlenmeyer flask for 45 sec, instead of NH4OH, in this experiment. The criteria to define cough in mice is that opening the mouth accompanying sound of coughing, contraction of thoracic and abdomen muscles, and a jerking of the front body.
# [5] = compared with NH4OH control mice
compound,measurement,setting,value
"Cn1cnc2c1c(=O)[nH]c(=O)n2C [TB, theobromine]",Cells Inflammatory (trachea),NH4OH exposured mice [1]; NH4OH exposured mice,167.40 ± 40.26^hi Numbers/mm^2
same,Cells Mast (trachea),NH4OH exposured mice [1]; NH4OH exposured mice,14.30 ± 4.60^hi Numbers/mm^2
same,Diameter of lumen (trachea),NH4OH exposured mice [1]; NH4OH exposured mice,860.11 ± 100.75^ac μm
same,Thickness Epithelium (trachea),NH4OH exposured mice [1]; NH4OH exposured mice,24.21 ± 4.36^hi μm
same,Thickness Submucosa (trachea),NH4OH exposured mice [1]; NH4OH exposured mice,47.31 ± 11.39^hi μm
same,Thickness Total wall (trachea),NH4OH exposured mice [1]; NH4OH exposured mice,191.23 ± 10.24^hi μm
same,Alveolar surface area,"NH4OH exposured mice [1]; NH4OH exposured mice, lung",51.13 ± 5.95^ac %
same,Septum thickness,"NH4OH exposured mice [1]; NH4OH exposured mice, lung",30.53 ± 10.06^gh μm
same,inflammatory cells (alveolar septum),"NH4OH exposured mice [1]; NH4OH exposured mice, lung",492.00 ± 114.18^gh numbers/mm^2
same,"Mean ASA, change",NH4OH exposured mice [1]; [5],65.26%
same,"Mean diameters of trachea lumen, change",NH4OH exposured mice [1]; [5],30.60%
same,"Mean numbers of infiltrated inflammatory cells on the alveolar septum, change",NH4OH exposured mice [1]; [5],−73.92%
same,"Mean numbers of infiltrated inflammatory cells on the trachea, change",NH4OH exposured mice [1]; [5],−62.74%
same,"Mean numbers of infiltrated mast cells on the trachea, change",NH4OH exposured mice [1]; [5],−63.05%
same,"Mean thicknesses of alveolar septum, change",NH4OH exposured mice [1]; [5],−57.84%
same,"Mean thicknesses of trachea epithelium, change",NH4OH exposured mice [1]; [5],−35.48%
same,"Mean thicknesses of trachea submucosa, change",NH4OH exposured mice [1]; [5],−47.27%
same,"Mean thicknesses of trachea wall, change",NH4OH exposured mice [1]; [5],−13.23%
same,Body weight gains (g) [B − A],"[2]; 11 days, NH4OH exposured mice",1.71 ± 0.97 g
same,Body weights (g) at test material administration First [A],"[2]; 11 days, NH4OH exposured mice",29.23 ± 1.49 g
same,Body weights (g) at test material administration Last [B],"[2]; 11 days, NH4OH exposured mice",30.94 ± 1.77 g
same,"body weight gains during 11 days, change",[2]; [5],2.40%
same,Cells Inflammatory (ear dermis),[3],10.10 ± 10.54^fh Numbers/mm^2
same,Cells Mast (ear dermis),[3],61.30 ± 12.65^c Numbers/mm^2
same,Collagen fiber,[3],77.43 ± 12.79^h %/mm^2 of dermis
same,Thickness Dermis (ear),[3],52.33 ± 13.72^h μm
same,Thickness Epidermis (ear),[3],8.50 ± 1.65 μm
same,Thickness Total (ear),[3],99.55 ± 9.57^h μm
same,"Mean numbers of coughing responses during 6 min after 45 sec exposure of NH4OH, change",NH4OH exposured mice [4],−59.04%
